Measured values from patent US20240327406A1, “POTASSIUM CHANNEL MODULATORS” (Autifony Therapeutics Limited, priority 2021, published 2024).

Experiment: In vitro metabolic stability, rat liver microsomes
Assay type: in vitro ADME
Conditions: CLint expressed as mL/min/g liver
Protocol: The objective of this study was to determine metabolic stability of test items in rat and human liver microsomes. Verapamil and dextromethorphan were used as positive controls for microsomal incubation.
Incubation medium was prepared by combining 11.2 mL of potassium phosphate monobasic and 38.8 mL of potassium phosphate dibasic, diluted to 1 L with water. Cryopreserved microsomes were thawed and kept on ice until use. Microsomes were then diluted in incubation to a protein concentration of 0.56 mg/mL. […]
NADPH regenerating system solution was prepared by dissolving 1.7 mg of NADP, 7.8 mg of G6P and 6 units of G6P-Dehydrogenase in 1 mL of 2% sodium bicarbonate solution (prepared by dissolving 20 g of NaHCO3 in 1 L of water).
Test compounds were separately dissolved in DMF to obtain 10 mM stock solutions that were further diluted in water/acetonitrile 50/50 (v/v) to obtain the corresponding 50 μM working solutions. Verapamil and dextromethorphan were dissolved in DMF in order to obtain a 10 mM verapamil solution and 10 mM dextromethorphan solution. These solutions were then diluted in the incubation medium in order to obtain a 50 μM verapamil working solution and a 50 μM dextromethorphan working solution.
800 μL-aliquots of NADPH regenerating system were pre-warmed at 37° C. for 5 minutes. 5 μL of 50 µM test compounds, verapamil or dextromethorphan were added to 445 μL of the 0.56 mg/mL microsomes solution and the incubation mixture was pre-warmed in a 96 deep well 2 mL plate (incubation plate) at 37° C. for 5 minutes. The incubation reactions were initiated by adding 50 μL of pre-warmed NADPH regenerating system to the incubation mixtures. 50 μL aliquots were taken from incubation mixtures at: 0, 3, 6, 9, 15, and 30 minutes and the reactions were stopped by adding 100 μL of aceronitrile with the corresponding internal standard. Samples were then diluted with 120 μL of water (final organic solvent percentage at 37%) and centrifuged at 3000 rpm for 10 minutes, prior the LC-MS/MS analysis.
Metabolic stability was calculated from the peak area ratio of the remaining test compound with internal standard versus time. The intrinsic clearance (CLint) was determined from the first order elimination constant k (min^−1) (obtained from GraphPad by plotting the natural logarithm of the peak area ratio of the remaining test item with internal standard versus time), using the actual volume of the incubation V (mL), the amount of hepatocytes in the incubation M (million cells) and the hepatocellularity number per a liver Hn (120 for human).

Structure (SMILES) | Cli rat
Cc1ccc(Oc2ccc(-n3c(=O)[nH]c4cccnc43)cn2)cc1OC(F)(F)F [Example 4, 3-[6-[4-methyl-3-(trifluoromethoxy)phenoxy]-3-pyridyl]-1H-imidazo[4,5-b]pyridin-2-one] | 0.9 mL/min/g
O=c1[nH]c2cccnc2n1-c1cnc(Oc2cccc(OC(F)(F)F)c2)nc1 [Example 17, 3-[2-[3-(trifluoromethoxy)phenoxy]pyrimidin-5-yl]-1H-imidazo[4,5-b]pyridin-2-one] | <0.5 mL/min/g
Cc1ccc(Oc2ncc(-n3c(=O)[nH]c4cccnc43)cn2)cc1OC(F)(F)F [Example 32, 3-[2-[4-methyl-3-(trifluoromethoxy)phenoxy]pyrimidin-5-yl]-1H-imidazo[4,5-b]pyridin-2-one] | 0.9 mL/min/g
